The text below walks through data of paper PMC5543128 (Scientific Reports, 2017).

Entries after “also recorded” stand apart in the source; their conditions may differ. Where a SMILES comes first, the peptide text is derived from it. Bridges are numbered along the chain shown (N, C = ends). [ ]: non-standard residue; d: D form. Hyp = O=C(O)[C@@H]1C[C@@H](O)CN1 Some results are limits rather than exact numbers.

The test system of data set [1] is isolated mouse phrenic-hemidiaphragm nerve-muscle preparations. Particulars: for IC50: pH 7.4.
Data set [2] concerns hemidiaphragm muscle. More on the design: species or system mouse.
In data set [3] the target is Torpedo muscle-type nicotinic acetylcholine receptors (nAChRs) (Tetronarce californica, UniProt P02710+P02714+P02718). The class given is binding.
Chain of Torpedo muscle-type nicotinic acetylcholine receptors (nAChRs) (P02710 whole entry, looked up): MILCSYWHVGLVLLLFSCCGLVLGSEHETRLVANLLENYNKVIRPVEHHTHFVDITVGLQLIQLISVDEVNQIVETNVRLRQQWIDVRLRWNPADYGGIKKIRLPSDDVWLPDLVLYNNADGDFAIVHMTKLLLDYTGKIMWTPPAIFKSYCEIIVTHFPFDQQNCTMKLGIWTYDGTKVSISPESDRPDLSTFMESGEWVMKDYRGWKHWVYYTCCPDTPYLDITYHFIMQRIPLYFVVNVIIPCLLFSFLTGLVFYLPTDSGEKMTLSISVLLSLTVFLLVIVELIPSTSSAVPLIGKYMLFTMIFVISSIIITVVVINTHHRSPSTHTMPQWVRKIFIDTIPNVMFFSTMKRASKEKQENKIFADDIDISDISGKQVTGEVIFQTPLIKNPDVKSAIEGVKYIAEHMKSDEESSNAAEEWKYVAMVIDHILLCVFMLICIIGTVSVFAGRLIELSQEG
Chain of Torpedo muscle-type nicotinic acetylcholine receptors (nAChRs) (P02714 whole entry, looked up): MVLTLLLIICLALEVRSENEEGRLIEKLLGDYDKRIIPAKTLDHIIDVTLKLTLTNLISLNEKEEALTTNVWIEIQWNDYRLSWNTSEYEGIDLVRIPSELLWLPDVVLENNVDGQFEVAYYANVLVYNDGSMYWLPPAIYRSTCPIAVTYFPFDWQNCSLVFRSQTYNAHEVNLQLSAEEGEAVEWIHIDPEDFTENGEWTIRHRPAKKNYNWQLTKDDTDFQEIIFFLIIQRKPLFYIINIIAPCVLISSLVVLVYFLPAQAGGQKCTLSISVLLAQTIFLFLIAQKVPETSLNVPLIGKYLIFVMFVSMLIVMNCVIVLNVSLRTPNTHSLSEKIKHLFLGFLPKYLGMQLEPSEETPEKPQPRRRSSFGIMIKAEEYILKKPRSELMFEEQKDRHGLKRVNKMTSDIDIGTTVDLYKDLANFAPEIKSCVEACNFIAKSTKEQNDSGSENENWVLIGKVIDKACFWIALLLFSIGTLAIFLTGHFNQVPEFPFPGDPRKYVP
Chain of Torpedo muscle-type nicotinic acetylcholine receptors (nAChRs) (P02718 whole entry, looked up): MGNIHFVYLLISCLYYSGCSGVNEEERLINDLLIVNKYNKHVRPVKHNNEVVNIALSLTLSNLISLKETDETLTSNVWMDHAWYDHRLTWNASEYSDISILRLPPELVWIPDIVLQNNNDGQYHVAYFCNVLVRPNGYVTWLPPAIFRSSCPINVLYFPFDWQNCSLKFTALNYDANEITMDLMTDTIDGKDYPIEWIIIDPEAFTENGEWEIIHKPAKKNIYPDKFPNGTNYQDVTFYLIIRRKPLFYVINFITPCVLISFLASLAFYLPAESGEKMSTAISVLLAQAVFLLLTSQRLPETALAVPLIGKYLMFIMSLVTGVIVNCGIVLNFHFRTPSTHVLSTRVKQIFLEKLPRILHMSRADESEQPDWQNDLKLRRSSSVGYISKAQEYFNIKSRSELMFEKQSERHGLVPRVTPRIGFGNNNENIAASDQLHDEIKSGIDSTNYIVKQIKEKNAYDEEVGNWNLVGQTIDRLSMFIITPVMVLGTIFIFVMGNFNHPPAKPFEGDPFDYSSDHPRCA
Data set [4] relates to mice. Particulars: mouse, in vivo, ip.
Data set [5] concerns mice. Particulars: mouse, in vivo.

In the case of `CC[C@H](C)[C@H](NC(=O)[C@H](Cc1ccc(O)cc1)NC(=O)[C@H](Cc1c[nH]cn1)NC(=O)[C@@H]1CSSC[C@H](NC(=O)[C@@H]2CCCN2C(=O)[C@H](CCCNC(=N)N)NC(=O)[C@H](CC(C)C)NC(=O)[C@H](CC(=O)O)NC(=O)[C@@H]2CCCN2C(=O)[C@H](CCCCN)NC(=O)CNC(=O)CN)C(=O)N[C@@H](Cc2c[nH]cn2)C(=O)N2CCC[C@H]2C(=O)N2CCC[C@H]2C(=O)N1)C(=O)N1CCC[C@H]1C(=O)N[C@@H](CCCNC(=N)N)C(=O)N1CCC[C@H]1C(=O)N[C@@H](CCCCN)C(=O)N1CCC[C@H]1C(=O)N[C@@H](CCCNC(=N)N)C(=O)O` [Waglerin 1] (H-GGKPDLRPCHPPCHYIPRPKPR-OH; disulfide 9-13), in data set [1], the “maximal block of contraction” value is “full block of contraction”, the “potency relative to αC-conotoxin PrXA” value is reported as “twofold less potent” and inhibition was half-maximal at 58 ± 2 nM (IC50).

Consider `CC[C@H](C)[C@H](NC(=O)CNC(=O)[C@H](Cc1ccc(O)cc1)NC(=O)[C@@H](N)[C@@H](C)O)C(=O)N[C@@H](Cc1ccc(O)cc1)C(=O)N[C@@H](CC(=O)O)C(=O)N[C@@H](C)C(=O)N[C@@H](CCCCN)C(=O)N1CCC[C@H]1C(=O)N1C[C@H](O)C[C@H]1C(=O)N[C@@H](Cc1ccccc1)C(=O)N[C@@H](CO)C(=O)N[C@H]1CSSC[C@@H](C(=O)N[C@H](C(=O)N[C@@H](CC(C)C)C(=O)N2CCC[C@H]2C(=O)N2C[C@H](O)C[C@H]2C(=O)N[C@@H](CC(N)=O)C(=O)N[C@@H](CC(C)C)C(=O)N[C@@H](CCCNC(=N)N)C(=O)N2C[C@H](O)C[C@H]2C(=O)N[C@@H](CCCCN)C(=O)N[C@@H](Cc2ccccc2)C(=O)N[C@@H](CCCCN)C(=O)N[C@@H](CCC(=O)O)C(N)=O)C(C)C)NC(=O)CNC(=O)CNC(=O)[C@H](CCCNC(=N)N)NC(=O)[C@H](CC(C)C)NC(=O)CNC(=O)[C@H](C)NC1=O` [αC-conotoxin PrXA] (H-TYGIYDAKP[Hyp]FSCAGLRGGCVLP[Hyp]NLR[Hyp]KFKE-NH2; disulfide 13-20), for which, in data set [1], the “inhibition of muscle contraction” value was “concentration- and time-dependent inhibition of muscle contraction”; the “time to full block of muscle contraction” value is given as 15 min; 23 ± 2 nM corresponded to half-maximal inhibition (IC50). Also, the “effect on contractility force under direct electrical stimulation” value in data set [2] is listed as “did not alter muscle contractility force; also recorded: Lack of toxin effect on direct muscle stimulation”. Further, the “inhibition of [^125I]-α-bungarotoxin binding” value in data set [3] is on record as “fully inhibited”. Besides, in data set [4], the “D/T (dead/treated mice)” value is 3/3.

Consider `CC[C@H](C)[C@H](NC(=O)[C@H](Cc1ccc(O)cc1)NC(=O)[C@H](Cc1cnc[nH]1)NC(=O)[C@@H]1CSSC[C@H](NC(=O)[C@@H]2CCCN2C(=O)[C@H](CCCNC(=N)N)NC(=O)[C@H](CC(C)C)NC(=O)[C@H](CC(=O)O)NC(=O)[C@@H]2CCCN2C(=O)[C@H](CCCCN)NC(=O)CNC(=O)CN)C(=O)N[C@@H](Cc2cnc[nH]2)C(=O)N2CCC[C@H]2C(=O)N2CCC[C@H]2C(=O)N1)C(=O)N1CCC[C@H]1C(=O)N[C@@H](CCCNC(=N)N)C(=O)N1CCC[C@H]1C(=O)N[C@@H](CCCCN)C(=O)N1CCC[C@H]1C(=O)N[C@@H](CCCNC(=N)N)C(=O)O` [Waglerin 1] (H-GGKPDLRPCHPPCHYIPRPKPR-OH; disulfide 9-13), for which, in data set [5], the mice lethality turned out to be 100% and the time to death is recorded as no more than 4.7 ± 0.7 min. Also, the “IC50 (mice death)” value in data set [5] (ip) is reported as 0.7 µg/g.

The term IC50 denotes the point on the concentration scale where inhibition reaches its midpoint. Read a high IC50 as weaker potency.
